The source of these data is ChEMBL document CHEMBL3399989, “PTP1B inhibitors from stems of Angelica keiskei (Ashitaba)” (Bioorg Med Chem Lett, 2015).

Each structure is given as a SMILES string. The source made the active and inactive calls. The calls are words filed in the database; no cut-off is given here. Bounds are passed on as bounds.

The target in experiment [1] is T1, Tyrosine-protein phosphatase non-receptor type 1 (Homo sapiens, UniProt P18031).
T1 sequence (P18031 whole entry): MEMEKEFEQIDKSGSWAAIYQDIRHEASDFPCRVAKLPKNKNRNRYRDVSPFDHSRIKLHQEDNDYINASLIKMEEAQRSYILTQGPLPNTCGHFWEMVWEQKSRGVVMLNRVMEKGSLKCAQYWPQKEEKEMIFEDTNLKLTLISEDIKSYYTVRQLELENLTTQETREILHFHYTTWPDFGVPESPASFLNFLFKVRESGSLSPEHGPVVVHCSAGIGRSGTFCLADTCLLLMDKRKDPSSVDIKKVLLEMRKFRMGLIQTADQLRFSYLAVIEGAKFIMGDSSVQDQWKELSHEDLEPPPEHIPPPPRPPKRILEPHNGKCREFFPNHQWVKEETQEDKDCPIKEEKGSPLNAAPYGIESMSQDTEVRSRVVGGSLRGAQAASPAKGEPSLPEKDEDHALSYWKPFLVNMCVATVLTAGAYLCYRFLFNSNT
Description: Inhibition of PTP1B (unknown origin) using pNPP substrate measured after 3 mins by colorimetric assay.

For experiment [2], the target named is T2, Tyrosine-protein phosphatase non-receptor type 1 (Homo sapiens) (UniProt P18031).
T2 sequence (whole entry): T1 sequence (P18031 whole entry)
The experiment is described as follows: Inhibition of PTP1B (unknown origin) at 20 ug/ml using pNPP substrate measured after 3 mins by colorimetric assay.

Experiment [3] addresses T2, Tyrosine-protein phosphatase non-receptor type 1 (Homo sapiens). The experiment is described as follows: Competitive inhibition of PTP1B (unknown origin) assessed as increase in substrate Km at 1.5 to 6 uM using pNPP substrate by colorimetric method based Lineweaver-Burk plot method.
Experiment [4] shares this target. Description: Competitive inhibition of PTP1B (unknown origin) assessed as unchanged Vmax level at 1.5 to 6 uM using pNPP substrate by colorimetric method based Lineweaver-Burk plot method.
For experiment [5] the target is unchanged. Description: Fast-binding inhibition of PTP1B (unknown origin) using pNPP substrate by colorimetric method based enzyme kinetics assay.
Experiment [6] has the same target. The experiment is described as follows: Inhibition of PTP1B (unknown origin) using pNPP substrate by colorimetric method based enzyme kinetics assay. The following applies: TDE = time-dependent effect.

`C=C(C)C(O)Cc1c(OC)ccc(C(=O)/C=C/c2ccc(O)cc2)c1O` (centres undefined) [XANTHOANGELOL D] gave a half-inhibitory concentration (IC50) in experiment [1] of 11.2 µM. In addition, the inhibition in experiment [2] is 96.8%.

Regarding `COc1ccc(C(=O)/C=C/c2ccc(O)cc2)c(O)c1C/C=C(\C)CCC=C(C)C` [XANTHOANGELOL F], the IC50 in experiment [1] is 4.11 µM. In experiment [2], this molecule came in with an inhibition of 96.8%.

In experiment [1], `CC1(C)Oc2ccc3ccc(=O)oc3c2[C@@H](O)[C@H]1O` (relative stereo) showed an IC50 of 39.7 µM. This molecule also gave an inhibition in experiment [2] of 92.3%.

Regarding `O=c1cc(-c2ccc(O)c(O)c2)oc2cc(O[C@@H]3O[C@H](CO)[C@@H](O)[C@H](O)[C@H]3O)cc(O)c12`, the inhibition in experiment [2] was less than 50%.

As for `C/C=C(/C)C(=O)O[C@H]1c2c(ccc3ccc(=O)oc23)OC(C)(C)[C@H]1O`, the inhibition in experiment [2] is less than 50%.

In experiment [2], `COc1ccc(C(=O)/C=C/c2ccc(O)cc2)c2c1C(O)C(C(C)(C)O)O2` (centres undefined) displayed an inhibition of less than 50%.

`COc1c2occc2cc2ccc(=O)oc12` registered an inhibition in experiment [2] of less than 50%.

In experiment [1], `C=C[C@@H](O)C#CC#C[C@@H](O)/C=C\CCCCCCC` [FALCARINDIOL] had a 50% inhibitory concentration (IC50) of 31.6 µM. For the same molecule, the inhibition in experiment [2] stood at 97.8%.

For the molecule `COc1ccc(C(=O)/C=C/c2ccc(O)cc2)c2c1[C@H](OC)[C@H](O)C(C)(C)O2`, the inhibition in experiment [2] is less than 50%.

On to `O=c1c(O[C@@H]2OC[C@H](O)[C@H](O)[C@H]2O)c(-c2ccc(O)c(O)c2)oc2cc(O)cc(O)c12`, for which the inhibition in experiment [2] is less than 50%.

Molecule `C/C=C(/C)C(=O)O[C@H]1[C@@H](O)c2c(ccc3ccc(=O)oc23)OC1(C)C` had an inhibition in experiment [2] of less than 50%.

For the molecule `CC(C)C(=O)O[C@H]1Cc2c(ccc3ccc(=O)oc23)OC1(C)C`, in experiment [1], the IC50 was 30.3 µM. This molecule displayed an inhibition in experiment [2] of 93.7%.

As to `COc1ccc(C(=O)/C=C/c2ccc(O)cc2)c2c1[C@H](O)[C@H](O)C(C)(C)O2`, the inhibition in experiment [2] is less than 50%.

For `CCOC1c2c(OC)ccc(C(=O)/C=C/c3ccc(O)cc3)c2OC1C(C)(C)O` (centres undefined), the half-inhibitory concentration (IC50) in experiment [1] was 11.1 µM. Besides, the inhibition in experiment [2] was determined as 91.9%.

The molecule `O=c1c(O[C@@H]2O[C@H](CO)[C@H](O)[C@H](O)[C@H]2O)c(-c2ccc(O)c(O)c2)oc2cc(O)cc(O)c12` returned an inhibition in experiment [2] of less than 50%.

`COc1c2ccoc2cc2oc(=O)ccc12` [BERGAPTEN] had an IC50 in experiment [1] of 11.7 µM. Also, the inhibition in experiment [2] worked out at 98.4%.

Take `CC(C)=CCC/C(C)=C/Cc1c(O)ccc(C(=O)/C=C/c2ccc(O)cc2)c1O` [XANTHOANGELOL]: the IC50 in experiment [1] was 5.02 µM. In experiment [2], this molecule yielded an inhibition of 79.8%.

Regarding `C/C=C(/C)C(=O)O[C@@H]1Cc2c(ccc3ccc(=O)oc23)OC1(C)C` [JATAMANSIN], in experiment [1], the 50% inhibitory concentration (IC50) was 35.2 µM. The inhibition in experiment [2] was 93.5%.

Take `C=C(C)C(Cc1c(OC)ccc(C(=O)/C=C/c2ccc(O)cc2)c1O)OO` (centres undefined): the IC50 in experiment [1] is 3.86 µM. In experiment [2], this molecule returned an inhibition of 99.4%.

Consider `C=C(C)C(=O)Cc1c(OC)ccc(C(=O)/C=C/c2ccc(O)cc2)c1O`, for which the inhibition result in experiment [3], in experiment [4] and in experiment [5] was “Active” throughout. For the same molecule, the IC50 in experiment [1] is 2.33 µM. Further, the inhibition in experiment [2] is 85.2%; in experiment [6], “tde”.

In the case of `COc1ccc(C(=O)/C=C/c2ccc(O)cc2)c(O)c1CC=C(C)C`, in experiment [1], the IC50 is 7.3 µM. This molecule registered an inhibition in experiment [2] of 86%.

For `C[C@@H]1O[C@@H](Oc2c(-c3ccc(O)c(O)c3)oc3cc(O)cc(O)c3c2=O)[C@H](O)[C@H](O)[C@H]1O` [QUERCITRIN], the IC50 in experiment [1] was 39 µM. Moreover, the inhibition in experiment [2] came out at 64.4%.
